We go through 1 compound from patent publication US20220409526A1 (Retina Foundation Of The Southwest, priority 2019, published 2022).

The structures appear in SMILES notation.

Test [1] relates to ARPE-19 cells. Nature of the test: CellTiter-Glo assay (ATP). In kind it is cell-based, human. The following applies: 1 mM pretreatment, then 500 μM HQ for 3, 6 and 8 hours. The protocol:
ARPE-19 cells were grown in white 96 well plates. The cells were first exposed to 500 μM of HQ for 3, 6 and 8 hours and the amount of ATP produced was measured using the CellTiter-Glo assay kit to obtain a time dependent response (FIG. 15). […] Due to the mitochondrial damage caused by HQ, the production of ATP was decreased.

Test [2] has as its system mitochondrial DNA of ARPE-19 cells. Nature of the test: DNA fragmentation assay (long-extension PCR of mitochondrial DNA). The note with it: pretreatment for 24 hours (1 mM), then 500 uM HQ for 24 hours. In kind it is cell-based, human. The protocol:
Mitochondrial DNA damage has been linked to pathogenic diseases, including AMD. To determine if pretreatment of RPE cells with NAC alkyl-ester analogues could protect mitochondrial DNA against oxidative damage, a long-extension PCR based assay was used to measure amplification of a large stretch of mitochondrial DNA. The mitochondrial DNA damage assay was performed according to protocols known to those in the art (see Santos, J. H.; Mandavilli, B. S.; Van Houten, B., Measuring Oxidative mtDNA Damage and Repair Using Quantitative PCR. In Mitochondrial DNA: Methods and Protocols, Copeland, W. C., Ed. Humana Press: Totowa, N.J., 2002; pp 159-176). Briefly, ARPE-19 cells were grown to confluency in 6-well plates. The cells were treated with NAC alkyl-ester analogues for 24 hours, washed and then treated with 500 uM HQ for an additional 24 hours. DNA was isolated from the treated cells with a QIAamp DNA mini kit (Qiagen). The DNA samples were diluted to 3 ng/μl for use in PCR reactions. PCR products were quantified using the Quant-iT Picogreen dsDNA Assay kit (Invitrogen). The relative amplification of the large band was normalized to untreated cells. The amplification of the small mitochondrial band was used to normalize the data obtained from the large band to account for mitochondrial DNA copy number.

Test [3] concerns ARPE-19 cells. Briefly: JC-1 assay (mitochondrial membrane potential). In kind it is cell-based, human. The following applies: 1 mM pretreatment for 1 hour, then 50 μM HQ for 4 hours. The protocol:
JC-1 assays measuring the change in mitochondrial membrane potential were carried out to evaluate the protection of the NAC alkyl-ester analogues towards mitochondrial damage.
Typically, JC-1 dye has an inherent green fluorescence at 530 nm. Upon reaching the cell, due to the structural properties of the dye, it will accumulate in the mitochondria making aggregates known as J-aggregates. These J-aggregates consists of a red shifted fluorescence (590 nm). Damaged or unhealthy mitochondria, due to their depolarized membrane potential (compared to healthy ones), will have lesser amounts of aggregates and thus will have low intensity of red emission. Cells with healthy mitochondria will have a more prominent red fluorescence than that in cells with damaged/unhealthy mitochondria due to the ability in forming J-aggregates.
ARPE-19 cells were grown in black, clear bottom 96 well plates. […] With increasing time and dose of HQ, a drop in 590 nm/530 nm fluorescence is seen due to the depolarization of the mitochondria.
Next, to assess the effect of NAC alkyl-ester analogues on oxidative damage in mitochondria (FIG. 12B), ARPE-19 cells were pretreated with 1 mM NAC, NAC alkyl-ester analogues, NACA, GSH-EE and 1 μM MitoQ for 1 and 24 hours. […] The JC-1 solution was removed and washed once with PBS and fluorescence measurements were obtained in PBS at 485 nm excitation and emission at 535 nm and 590 nm. […]

Test [4] deals with ARPE-19 cells. Nature of the test: JC-1 staining (confocal). The following applies: 1 mM pretreatment for 24 hours, then 50 μM HQ for 4 hours.
Source text: The cells were imaged on the confocal (Zeiss LSM 800) by excitation with the 488 nm laser and emission imaged at 530 nm (green channel) and 590 nm (red channel).
Test [5] has as its system ARPE-19 cells. Briefly: GSH assay (Promega GSH/GSSG-Glo). In kind it is cell-based, human. The note with it: 1 mM for 24 hours. The protocol: The production of cellular GSH levels upon exposure to drugs were measured using the GSH assay kit. NACA and GSH-EE were used as controls in this assay. ARPE-19 cells were grown in white 96 well plates. The cells were exposed to 1 mM solutions of NAC, NACME, NACEE, NACPE, NACBE, NACA and glutathione ethyl ester (GSH-EE) for 24 hours. The solutions were removed and washed with PBS once. Afterwards, GSH assay was carried out according to manufacturer recommended protocol (Promega GSH/GSSG-Glo™) and luminescence readings were obtained with a luminometer, which a higher luminescence intensity indicates a higher GSH concentration.

Consider `CCCCOC(=O)[C@H](CS)NC(C)=O` [NACBE, N-acetylcysteine butyl ester], for which the “ATP production after HQ insult” value in the test on ARPE-19 cells [1] is given as “ATP production remained unaltered”. Further, the “protection of mitochondrial DNA amplification against HQ” value in test [2] is listed as “keep the PCR amplification of the mitochondrial DNA intact”. For the same compound, in the test with ARPE-19 cells [3], the “protection towards mitochondrial damage (JC-1)” value is “improved protection towards mitochondrial damage”. Moreover, in the test with ARPE-19 cells [4], the “mitochondrial membrane potential after HQ (JC-1 staining)” value was “preserved the mitochondrial membrane potential”. For the same compound, in the test with ARPE-19 cells [5], the “cellular GSH level (luminescence) compared to untreated cells” value is “produced the highest amounts of GSH”.
